From PMC4138103 (PLoS ONE, 2014)
Read-outs that look alike come from different tables or passages of the source.

Test system: Sprague-Dawley rats
Assay: Clinical chemistry
Format: in vivo, Rattus norvegicus
Set-up: key to Cholesterol, Dose response / Triglyserides, Dose response / Glucose, Dose response / Albumin, Dose response / K, Dose response / Total bilirubin, Dose response: D: significant dose response (for results, see Table 2); T: significant trend
Conditions: for CED, Glucose / CED, Potassium / CED-L, Glucose / CED-L, Potassium / CED, Alkaline phosphatase / CED, Chlolesterol / CED, Total Bilirubin / CED-L, Alkaline phosphatase / CED-L, Chlolesterol / CED-L, Total Bilirubin / CED, Albumin / CED-L, Albumin / CED, Total protein / CED, Triglycerides / CED-L, Total protein / CED-L, Triglycerides: adipose tissue concentration based; for Emax: Rattus norvegicus
Protocol: Spectrophotometric methods were used for the determination of serum total calcium, cholesterol, creatinine, glucose, triglycerides and urea. Serum sodium, potassium and chloride concentrations were measured directly by ion selective electrodes. The analyses were performed by a clinical chemistry analyzer (Konelab 30i, ThermoFisher Scientific, Vantaa, Finland). Plasma lactate dehydrogenase (LD) activity was measured according to the recommendations of the International Federation of Clinical Chemistry (IFCC 1994/I) using Konelab 60i clinical chemistry analyzer. Methods and results for liver related parameters (serum alanine aminotransferase [ALT] activity, alkaline phosphatase [ALP] activity, albumin, total protein and total bilirubin are reported separately.
Data were also analyzed using the BMD method, which is based on dose-response modeling of the full data set using a nested family of exponential and Hill models. The analyses were done on data of males and females combined, using sex as a covariate. […] In that case, different Critical Effect Doses (CEDs) and CEDs at the lowest bound of the confidence interval (CED-L) were generated for each sex. If no difference between sexes is detected, a CED and CED-Ls for the combined data is generated. However, this was also done if the curve fits are close, and separate analyses for males and females were then performed manually. CEDs and CED-Ls were calculated at the predefined Critical Effect Size (CES) of 5% (EFSA standard) or 10%.

[1] = females, total dose 0-1700 mg/kg bw
[2] = females, total dose 10 mg/kg bw
[3] = females, total dose 30 mg/kg bw
[4] = females, total dose 100 mg/kg bw
[5] = females, total dose 300 mg/kg bw
[6] = females, total dose 1000 mg/kg bw
[7] = females, total dose 1700 mg/kg bw

Structure (SMILES): Clc1cc(Cl)c(-c2cc(Cl)c(Cl)c(Cl)c2Cl)cc1Cl [PCB 180, 2,2′,3′,4,4′,5,5′-heptachlorobiphenyl]
- CED, Glucose (F, CES 5%, model E2): 4450 µg/g lipid
- CED, Potassium (F, CES 5%, model E2): 7900 µg/g lipid
- CED-L, Glucose (F, CES 5%, model E2): 2648 µg/g lipid
- CED-L, Potassium (F, CES 5%, model E2): 5086 µg/g lipid
- CED, Alkaline phosphatase (F, CES 5%, model E4): 308 µg/g lipid
- CED, Chlolesterol (F, CES 5%, model E4): 640 µg/g lipid
- CED, Total Bilirubin (F, CES 5%, model E4): 19.4 µg/g lipid
- CED-L, Alkaline phosphatase (F, CES 5%, model E4): 136 µg/g lipid
- CED-L, Chlolesterol (F, CES 5%, model E4): 387 µg/g lipid
- CED-L, Total Bilirubin (F, CES 5%, model E4): 3.77 µg/g lipid
- CED, Glucose (F, CES 10%, model E2): 9140 µg/g lipid
- CED, Potassium (F, CES 10%, model E2): 16200 µg/g lipid
- CED-L, Glucose (F, CES 10%, model E2): 5440 µg/g lipid
- CED-L, Potassium (F, CES 10%, model E2): 10450 µg/g lipid
- CED, Alkaline phosphatase (F, CES 10%, model E4): 701 µg/g lipid
- CED, Chlolesterol (F, CES 10%, model E4): 1330 µg/g lipid
- CED, Total Bilirubin (F, CES 10%, model E4): 48.2 µg/g lipid
- CED-L, Alkaline phosphatase (F, CES 10%, model E4): 309 µg/g lipid
- CED-L, Chlolesterol (F, CES 10%, model E4): 813 µg/g lipid
- CED-L, Total Bilirubin (F, CES 10%, model E4): 8.98 µg/g lipid
- CED, Albumin (M, CES 5%, model E2): 6750 µg/g lipid
- CED, Alkaline phosphatase (M, CES 5%, model E2): 2300 µg/g lipid
- CED, Glucose (M, CES 5%, model E2): 866 µg/g lipid
- CED-L, Albumin (M, CES 5%, model E2): 4696 µg/g lipid
- CED-L, Alkaline phosphatase (M, CES 5%, model E2): 1393 µg/g lipid
- CED-L, Glucose (M, CES 5%, model E2): 632 µg/g lipid
- CED, Chlolesterol (M, CES 5%, model E4): 177 µg/g lipid
- CED, Total protein (M, CES 5%, model E4): 1080 µg/g lipid
- CED, Triglycerides (M, CES 5%, model E4): 12.5 µg/g lipid
- CED-L, Chlolesterol (M, CES 5%, model E4): 91.4 µg/g lipid
- CED-L, Total protein (M, CES 5%, model E4): 575 µg/g lipid
- CED-L, Triglycerides (M, CES 5%, model E4): 7.26 µg/g lipid
- CED, Albumin (M, CES 10%, model E2): 13200 µg/g lipid
- CED, Alkaline phosphatase (M, CES 10%, model E2): 4730 µg/g lipid
- CED, Glucose (M, CES 10%, model E2): 1780 µg/g lipid
- CED-L, Albumin (M, CES 10%, model E2): 9174 µg/g lipid
- CED-L, Alkaline phosphatase (M, CES 10%, model E2): 2861 µg/g lipid
- CED-L, Glucose (M, CES 10%, model E2): 1297 µg/g lipid
- CED, Chlolesterol (M, CES 10%, model E4): 365 µg/g lipid
- CED, Total protein (M, CES 10%, model E4): 2970 µg/g lipid
- CED, Triglycerides (M, CES 10%, model E4): 26.2 µg/g lipid
- CED-L, Chlolesterol (M, CES 10%, model E4): 189 µg/g lipid
- CED-L, Total protein (M, CES 10%, model E4): 1629 µg/g lipid
- CED-L, Triglycerides (M, CES 10%, model E4): 15.2 µg/g lipid
- Emax (F, model E2, controls vs high dose according to the fitted model, read-out: Maximum response, Glucose): -12.2%
- Emax (F, model E2, controls vs high dose according to the fitted model, read-out: Maximum response, Potassium): -7.07%
- Emax (F, model E4, controls vs high dose according to the fitted model, read-out: Maximum response, Alkaline phosphatase): -25.7%
- Emax (F, model E4, controls vs high dose according to the fitted model, read-out: Maximum response, Chlolesterol): 53.8%
- Emax (F, model E4, controls vs high dose according to the fitted model, read-out: Maximum response, Total Bilirubin): -18.2%
- Emax (females, controls vs high dose, fitted model, read-out: Alkaline phosphatase, Maximum response): -25.7%
- Emax (females, controls vs high dose, fitted model, read-out: Chlolesterol, Maximum response): 54.1%
- Emax (females, controls vs high dose, fitted model, read-out: Glucose, Maximum response): -12.1%
- Emax (females, controls vs high dose, fitted model, read-out: Potassium, Maximum response): -7%
- Emax (females, controls vs high dose, fitted model, read-out: Total Bilirubin, Maximum response): -17.9%
- Emax (males, controls vs high dose, fitted model, read-out: Albumin, Maximum response): 5.5%
- Emax (males, controls vs high dose, fitted model, read-out: Alkaline phosphatase, Maximum response): -14.9%
- Emax (males, controls vs high dose, fitted model, read-out: Chlolesterol, Maximum response): 80.8%
- Emax (males, controls vs high dose, fitted model, read-out: Glucose, Maximum response): -35.6%
- Emax (males, controls vs high dose, fitted model, read-out: Total protein, Maximum response): 14.1%
- Emax (males, controls vs high dose, fitted model, read-out: Triglycerides, Maximum response): -62.2%
- Emax (model E2, controls vs high dose according to the fitted model, read-out: Maximum response, Albumin): 5.49%
- Emax (model E2, controls vs high dose according to the fitted model, read-out: Maximum response, Alkaline phosphatase): -15.4%
- Emax (model E2, controls vs high dose according to the fitted model, read-out: Maximum response, Glucose): -35.4%
- Emax (model E4, controls vs high dose according to the fitted model, read-out: Maximum response, Chlolesterol): 81.7%
- Emax (model E4, controls vs high dose according to the fitted model, read-out: Maximum response, Total protein): 14.2%
- Emax (model E4, controls vs high dose according to the fitted model, read-out: Maximum response, Triglycerides): -62.5%
- Cholesterol, Dose response [1]: T
- Glucose, Dose response [1]: T
- K, Dose response [1]: T
- Total bilirubin, Dose response [1]: T
- Albumin (females, total dose 3 mg/kg bw): 33.8 g/L
- Cholesterol (females, total dose 3 mg/kg bw): 3.11 mmol/L
- Cl (females, total dose 3 mg/kg bw): 97.1 mmol/L
- Creatinine (females, total dose 3 mg/kg bw): 51.7 µmol/L
- Glucose (females, total dose 3 mg/kg bw): 13.7 mmol/L
- K (females, total dose 3 mg/kg bw): 5.59 mmol/L
- Na (females, total dose 3 mg/kg bw): 142.1 mmol/L
- Total Ca (females, total dose 3 mg/kg bw): 3.40 mmol/L
- Total bilirubin (females, total dose 3 mg/kg bw): 1.59 µmol/L
- Triglyserides (females, total dose 3 mg/kg bw): 0.91 mmol/L
- Urea (females, total dose 3 mg/kg bw): 9.9 mmol/L
- Albumin [2]: 33.9 g/L
- Cholesterol [2]: 3.35 mmol/L
- Cl [2]: 97.2 mmol/L
- Creatinine [2]: 53.8 µmol/L
- Glucose [2]: 14.4 mmol/L
- K [2]: 5.70 mmol/L
- Na [2]: 143.6 mmol/L
- Total Ca [2]: 3.42 mmol/L
- Total bilirubin [2]: 1.66 µmol/L
- Triglyserides [2]: 0.85 mmol/L
- Urea [2]: 9.4 mmol/L
- Albumin [3]: 32.7 g/L
- Cholesterol [3]: 3.05 mmol/L
- Cl [3]: 97.3 mmol/L
- Creatinine [3]: 48.6 µmol/L
- Glucose [3]: 13.6 mmol/L
- K [3]: 5.55 mmol/L
- Na [3]: 142.7 mmol/L
- Total Ca [3]: 3.46 mmol/L
- Total bilirubin [3]: 1.40 µmol/L
- Triglyserides [3]: 1.19 mmol/L
- Urea [3]: 9.5 mmol/L
- Albumin [4]: 33.1 g/L
- Cholesterol [4]: 3.54 mmol/L
- Cl [4]: 97.0 mmol/L
- Creatinine [4]: 51.3 µmol/L
- Glucose [4]: 13.8 mmol/L
- K [4]: 5.75 mmol/L
- Na [4]: 142.5 mmol/L
- Total Ca [4]: 3.44 mmol/L
- Total bilirubin [4]: 1.56 µmol/L
- Triglyserides [4]: 0.89 mmol/L
- Urea [4]: 8.6 mmol/L
- Albumin [5]: 33.5 g/L
- Cholesterol [5]: 3.52 mmol/L
- Cl [5]: 96.8 mmol/L
- Creatinine [5]: 47.8 µmol/L
- Glucose [5]: 14.0 mmol/L
- K [5]: 5.54 mmol/L
- Na [5]: 142.6 mmol/L
- Total Ca [5]: 3.56 mmol/L
- Total bilirubin [5]: 1.40 µmol/L
- Triglyserides [5]: 1.12 mmol/L
- Urea [5]: 10.1 mmol/L
- Albumin [6]: 33.0 g/L
- Cholesterol [6]: 4.16 mmol/L
- Cl [6]: 97.2 mmol/L
- Creatinine [6]: 51.9 µmol/L
- Glucose [6]: 12.6 mmol/L
- K [6]: 5.43 mmol/L
- Na [6]: 142.7 mmol/L
- Total Ca [6]: 3.40 mmol/L
- Total bilirubin [6]: 1.43 µmol/L
- Triglyserides [6]: 0.89 mmol/L
- Urea [6]: 9.3 mmol/L
- Albumin [7]: 33.3 g/L
- Cholesterol [7]: 4.94 mmol/L
- Cl [7]: 97.7 mmol/L
